Patent US11919901B2 (Syndax Pharmaceuticals, Inc., priority 2021, dated 2024)
Read-outs that look alike come from different tables or passages of the source.

Key:
hERG = hERG (Homo sapiens (Human), UniProt Q12809); experiment: Patch clamp assay (hERG tail currents, whole-cell); type: cell-based; settings: hERG transfected HEK 293 cells; for hERG % Remaining 30 μM: 30 μM compound; for hERG % Remaining 10 μM: 10 μM compound
Menin-MLL = Menin-MLL (Homo sapiens (Human), UniProt O00255); experiment: Determination of binding constants (Ki) to Menin-MLL (HTRF)
Sequence of Menin-MLL (O00255 whole entry): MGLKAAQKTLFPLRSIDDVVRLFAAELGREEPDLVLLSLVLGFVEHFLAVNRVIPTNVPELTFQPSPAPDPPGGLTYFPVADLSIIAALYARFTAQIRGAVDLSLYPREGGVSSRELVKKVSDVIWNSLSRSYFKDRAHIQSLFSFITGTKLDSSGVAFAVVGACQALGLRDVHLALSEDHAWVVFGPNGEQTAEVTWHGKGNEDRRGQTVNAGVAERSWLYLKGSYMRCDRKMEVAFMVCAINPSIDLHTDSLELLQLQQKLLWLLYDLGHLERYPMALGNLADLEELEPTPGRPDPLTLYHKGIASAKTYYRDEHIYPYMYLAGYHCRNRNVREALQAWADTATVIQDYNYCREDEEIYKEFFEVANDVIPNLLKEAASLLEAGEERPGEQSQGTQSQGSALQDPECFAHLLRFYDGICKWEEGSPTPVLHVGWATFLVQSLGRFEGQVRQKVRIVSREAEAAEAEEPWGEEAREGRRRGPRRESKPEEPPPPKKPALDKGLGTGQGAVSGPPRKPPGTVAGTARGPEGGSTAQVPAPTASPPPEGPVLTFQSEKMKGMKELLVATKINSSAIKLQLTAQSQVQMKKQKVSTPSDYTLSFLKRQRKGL

[1] = HTRF, 0.25 nM H-FL-Menin, 3.2 nM FITC-MLL-4-43, 24 hr incubation, read-out: Menin-MLL Ki HTRF Assay: Ki

Sequence of hERG (Q12809 whole entry): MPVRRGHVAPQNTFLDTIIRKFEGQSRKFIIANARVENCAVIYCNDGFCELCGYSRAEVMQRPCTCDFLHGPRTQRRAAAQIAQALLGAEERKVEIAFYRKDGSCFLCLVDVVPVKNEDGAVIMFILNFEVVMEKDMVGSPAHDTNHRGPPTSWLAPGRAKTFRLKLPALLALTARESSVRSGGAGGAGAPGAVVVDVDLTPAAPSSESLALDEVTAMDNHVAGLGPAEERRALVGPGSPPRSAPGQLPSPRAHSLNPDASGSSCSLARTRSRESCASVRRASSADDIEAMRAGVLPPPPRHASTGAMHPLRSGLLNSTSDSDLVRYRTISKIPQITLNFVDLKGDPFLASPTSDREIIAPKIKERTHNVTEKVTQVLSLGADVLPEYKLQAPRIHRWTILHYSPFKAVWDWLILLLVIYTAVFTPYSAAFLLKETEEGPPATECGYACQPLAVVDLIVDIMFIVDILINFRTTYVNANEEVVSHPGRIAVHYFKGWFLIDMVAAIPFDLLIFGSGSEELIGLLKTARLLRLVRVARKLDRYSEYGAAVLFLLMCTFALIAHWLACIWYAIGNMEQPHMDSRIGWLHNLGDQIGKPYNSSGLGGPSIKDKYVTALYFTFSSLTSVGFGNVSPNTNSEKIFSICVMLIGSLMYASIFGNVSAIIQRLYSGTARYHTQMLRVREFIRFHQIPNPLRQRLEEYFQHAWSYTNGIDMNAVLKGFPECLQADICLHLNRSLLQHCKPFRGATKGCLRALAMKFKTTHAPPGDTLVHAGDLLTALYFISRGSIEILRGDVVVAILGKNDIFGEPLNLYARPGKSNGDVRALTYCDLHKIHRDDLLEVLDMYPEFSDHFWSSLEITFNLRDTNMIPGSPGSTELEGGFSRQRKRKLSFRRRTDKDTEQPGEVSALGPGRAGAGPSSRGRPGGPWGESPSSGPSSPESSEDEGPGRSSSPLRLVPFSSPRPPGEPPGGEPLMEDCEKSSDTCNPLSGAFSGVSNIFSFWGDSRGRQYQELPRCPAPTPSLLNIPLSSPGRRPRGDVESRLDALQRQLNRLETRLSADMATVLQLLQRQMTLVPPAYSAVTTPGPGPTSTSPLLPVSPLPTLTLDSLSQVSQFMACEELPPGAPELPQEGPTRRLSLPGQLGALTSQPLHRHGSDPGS

SMILES	hERG % Remaining 30 μM (hERG)	Ki (Menin-MLL; [1])	hERG % Remaining 10 μM (hERG)	Ki (Menin-MLL)	IC50 (hERG)
CC(C)N(C(=O)c1cc(F)ccc1Oc1nncnc1N1CC2(CCN(C[C@@H]3CC[C@@H](NS(=O)(=O)N4CCC4)CO3)CC2)C1)C(C)C [Compound 199, 2-((5-(7-(((2S,5R)-5-(Azetidine-1-sulfonamido)tetrahydro-2H-pyran-2-yl)methyl)-2,7-diazaspiro[3.5]nonan-2-yl)-1,2,4-triazin-6-yl)oxy)-5-fluoro-N,N-diisopropylbenzamide]	+++ (“+++” means ≥66%)	< 1 nM			
CCN(C(=O)c1cc(F)ccc1Oc1cncnc1N1CC2(CCN(C[C@@H]3CC[C@@H](NS(=O)(=O)N4CCC[C@H]4C)CO3)CC2)C1)C(C)C [Compound 200, N-Ethyl-5-fluoro-N-isopropyl-2-((4-(7-(((2S,5R)-5-(((R)-2-methylpyrrolidine)-1-sulfonamido)tetrahydro-2H-pyran-2-yl)methyl)-2,7-diazaspiro[3.5]nonan-2-yl)pyrimidin-5-yl)oxy)benzamide]	+ (“+” means <33%)	< 1 nM	++ (“++” means ≥33% and <66%)		
CCN(C(=O)c1cc(F)ccc1Oc1cncnc1N1CC2(CCN(C[C@@H]3CC[C@@H](NS(=O)(=O)N4CCC[C@@H]4C)CO3)CC2)C1)C(C)C [Compound 201, N-Ethyl-5-fluoro-N-isopropyl-2-((4-(7-(((2S,5R)-5-(((S)-2-methylpyrrolidine)-1-sulfonamido)tetrahydro-2H-pyran-2-yl)methyl)-2,7-diazaspiro[3.5]nonan-2-yl)pyrimidin-5-yl)oxy)benzamide]	+ (“+” means <33%)	< 1 nM	+ (“+” means <33%)		
CC(C)N(C(=O)c1cc(F)ccc1Oc1cncnc1N1CC2(CCN(C[C@@H]3CC[C@@H](NS(=O)(=O)N4CCC[C@@H]4C)CO3)CC2)C1)C(C)C [Compound 202, 5-Fluoro-N,N-diisopropyl-2-((4-(7-(((2S,5R)-5-(((S)-2-methylpyrrolidine)-1-sulfonamido)tetrahydro-2H-pyran-2-yl)methyl)-2,7-diazaspiro[3.5]nonan-2-yl)pyrimidin-5-yl)oxy)benzamide]	+ (“+” means <33%)	< 1 nM			
CC(C)N(C(=O)c1cc(F)ccc1Oc1cncnc1N1CC2(CCN(C[C@@H]3CC[C@@H](NS(=O)(=O)N4CCC[C@H]4C)CO3)CC2)C1)C(C)C [Compound 203, 5-Fluoro-N,N-diisopropyl-2-((4-(7-(((2S,5R)-5-(((R)-2-methylpyrrolidine)-1-sulfonamido)tetrahydro-2H-pyran-2-yl)methyl)-2,7-diazaspiro[3.5]nonan-2-yl)pyrimidin-5-yl)oxy)benzamide]	+ (“+” means <33%)	< 1 nM			
C[C@@H]1COC[C@@H](C)N1C(=O)c1cc(F)ccc1Oc1cncnc1N1CC2(CCN(C[C@@H]3CC[C@@H](NS(=O)(=O)N4CCC[C@H]4C)CO3)CC2)C1 [Compound 208, (R)-N-((3R,6S)-6-((2-(5-(2-((3R,5R)-3,5-Dimethylmorpholine-4-carbonyl)-4-fluorophenoxy)pyrimidin-4-yl)-2,7-diazaspiro[3.5]nonan-7-yl)methyl)tetrahydro-2H-pyran-3-yl)-2-methylpyrrolidine-1-sulfonamide]	+++ (“+++” means ≥66%)	< 1 nM			
C[C@@H]1COC[C@@H](C)N1C(=O)c1cc(F)ccc1Oc1cncnc1N1CC2(CCN(C[C@@H]3CC[C@@H](NS(=O)(=O)N4CCC[C@@H]4C)CO3)CC2)C1 [Compound 209, (S)-N-((3R,6S)-6-((2-(5-(2-((3R,5R)-3,5-Dimethylmorpholine-4-carbonyl)-4-fluorophenoxy)pyrimidin-4-yl)-2,7-diazaspiro[3.5]nonan-7-yl)methyl)tetrahydro-2H-pyran-3-yl)-2-methylpyrrolidine-1-sulfonamide]	+++ (“+++” means ≥66%)	< 1 nM			
CO[C@H]1CCN(S(=O)(=O)N[C@@H]2CC[C@@H](CN3CCC4(CC3)CN(c3ncncc3Oc3ccc(F)cc3C(=O)N(C(C)C)C(C)C)C4)OC2)C1 [Compound 210, 5-Fluoro-N,N-diisopropyl-2-((4-(7-(((2S,5R)-5-(((S)-3-methoxypyrrolidine)-1-sulfonamido)tetrahydro-2H-pyran-2-yl)methyl)-2,7-diazaspiro[3.5]nonan-2-yl)pyrimidin-5-yl)oxy)benzamide]	+++ (“+++” means ≥66%)	< 1 nM			
CO[C@@H]1CCN(S(=O)(=O)N[C@@H]2CC[C@@H](CN3CCC4(CC3)CN(c3ncncc3Oc3ccc(F)cc3C(=O)N(C(C)C)C(C)C)C4)OC2)C1 [Compound 211, 5-Fluoro-N,N-diisopropyl-2-((4-(7-(((2S,5R)-5-(((R)-3-methoxypyrrolidine)-1-sulfonamido)tetrahydro-2H-pyran-2-yl)methyl)-2,7-diazaspiro[3.5]nonan-2-yl)pyrimidin-5-yl)oxy)benzamide]	+++ (“+++” means ≥66%)	< 1 nM			
CC(C)N(CC(F)F)C(=O)c1cc(F)ccc1Oc1cncnc1N1CC2(CCN(C[C@@H]3CC[C@@H](NS(=O)(=O)N(C)CCCO)CO3)CC2)C1 [Compound 214, N-(2,2-difluoroethyl)-5-fluoro-2-((4-(7-(((2S,5R)-5-((N-(3-hydroxypropyl)-N-methylsulfamoyl)amino)tetrahydro-2H-pyran-2-yl)methyl)-2,7-diazaspiro[3.5]nonan-2-yl)pyrimidin-5-yl)oxy)-N-isopropylbenzamide]	+++ (“+++” means ≥66%)	< 1 nM			
CCN(C(=O)c1cc(F)ccc1Oc1cncnc1N1CC2(CCN(C[C@@H]3CC[C@@H](NS(=O)(=O)c4ccc(=O)[nH]c4C)CO3)CC2)C1)C(C)C [Compound 217, N-Ethyl-5-fluoro-N-isopropyl-2-((4-(7-(((2S,5R)-5-((2-methyl-6-oxo-1,6-dihydropyridine)-3-sulfonamido)tetrahydro-2H-pyran-2-yl)methyl)-2,7-diazaspiro[3.5]nonan-2-yl)pyrimidin-5-yl)oxy)benzamide]	+++ (“+++” means ≥66%)	< 1 nM			
CCN(C(=O)c1cc(F)ccc1Oc1cncnc1N1CC2(CCN(C[C@@H]3CC[C@@H](NS(=O)(=O)c4c[nH]c(=O)c(C)c4)CO3)CC2)C1)C(C)C [Compound 218, N-Ethyl-5-fluoro-N-isopropyl-2-((4-(7-(((2S,5R)-5-((5-methyl-6-oxo-1,6-dihydropyridine)-3-sulfonamido)tetrahydro-2H-pyran-2-yl)methyl)-2,7-diazaspiro[3.5]nonan-2-yl)pyrimidin-5-yl)oxy)benzamide]	+ (“+” means <33%)	< 1 nM			
CC(C)N(C(=O)c1cc(F)ccc1Oc1cncnc1N1CC2(CCN(C[C@@H]3CC[C@@H](NS(=O)(=O)N4CC5(CCOC5)C4)CO3)CC2)C1)C(C)C [Compound 223, 2-((4-(7-(((2S,5R)-5-(6-Oxa-2-azaspiro[3.4]octane-2-sulfonamido)tetrahydro-2H-pyran-2-yl)methyl)-2,7-diazaspiro[3.5]nonan-2-yl)pyrimidin-5-yl)oxy)-5-fluoro-N,N-diisopropylbenzamide]	+++ (“+++” means ≥66%)	< 1 nM			
CC(C)N(C(=O)c1cc(F)ccc1Oc1cncnc1N1CC2(CCN(C[C@@H]3CC[C@@H](NS(=O)(=O)N4CC5COCC5C4)CO3)CC2)C1)C(C)C (stereo partly drawn) [Compound 224, 5-Fluoro-2-((4-(7-(((2S,5R)-5-((hexahydro-1H-furo[3,4-c]pyrrole)-5-sulfonamido)tetrahydro-2H-pyran-2-yl)methyl)-2,7-diazaspiro[3.5]nonan-2-yl)pyrimidin-5-yl)oxy)-N,N-diisopropylbenzamide]	+++ (“+++” means ≥66%)	< 1 nM			
CCS(=O)(=NC)N[C@@H]1CC[C@@H](CN2CCC3(CC2)CN(c2ncncc2Oc2ccc(F)cc2C(=O)N(C(C)C)C(C)C)C3)OC1 (stereo partly drawn) [Compound 231, 5-Fluoro-N,N-diisopropyl-2-((4-(7-(((2S,5R)-5-(N′-methylethylsulfonoamidimidamido)tetrahydro-2H-pyran-2-yl)methyl)-2,7-diazaspiro[3.5]nonan-2-yl)pyrimidin-5-yl)oxy)benzamide]	+++ (“+++” means ≥66%)			< 1 nM	
CC(C)N(CC(F)F)C(=O)c1cc(F)ccc1Oc1cncnc1N1CC2(CCN(C[C@@H]3CC[C@@H](NS(=O)(=O)NCC(F)F)CO3)CC2)C1 [Compound 235, N-(2,2-Difluoroethyl)-2-((4-(7-(((2S,5R)-5-((N-(2,2-difluoroethyl)sulfamoyl)amino)tetrahydro-2H-pyran-2-yl)methyl)-2,7-diazaspiro[3.5]nonan-2-yl)pyrimidin-5-yl)oxy)-5-fluoro-N-isopropylbenzamide]	+++ (“+++” means ≥66%)			< 1 nM	
CC(C)N(CC(F)F)C(=O)c1cc(F)ccc1Oc1cncnc1N1CC2(CCN(C[C@@H]3CC[C@@H](NS(=O)(=O)N(C)CCO)CO3)CC2)C1 [Compound 239, N-(2,2-difluoroethyl)-5-fluoro-2-((4-(7-(((2S,5R)-5-((N-(2-hydroxyethyl)-N-methylsulfamoyl)amino)tetrahydro-2H-pyran-2-yl)methyl)-2,7-diazaspiro[3.5]nonan-2-yl)pyrimidin-5-yl)oxy)-N-isopropylbenzamide]	+++ (“+++” means ≥66%)	< 1 nM			
CC(C)N(CC(F)F)C(=O)c1cc(F)ccc1Oc1cncnc1N1CC2(CCN(C[C@@H]3CC[C@@H](NS(N)(=O)=O)CO3)CC2)C1 [Compound 240, N-(2,2-Difluoroethyl)-5-fluoro-N-isopropyl-2-((4-(7-(((2S,5R)-5-(sulfamoylamino)tetrahydro-2H-pyran-2-yl)methyl)-2,7-diazaspiro[3.5]nonan-2-yl)pyrimidin-5-yl)oxy)benzamide]	+++ (“+++” means ≥66%)	< 1 nM			≥ 50 µM
